Values quoted from earlier work, collected in patent US20200338051A1, “NON-CLINICAL LIQUID FORMULATIONS OF PAN-JAK INHIBITOR” (Janssen Pharmaceutica NV, priority 2019, published 2020).
Where two headings read alike, the source gives them in different places.

What was measured:
JAK3 = target: T1, JAK3 (Homo sapiens, UniProt P52333); conditions: in vitro
T1 sequence (P52333 1-1124): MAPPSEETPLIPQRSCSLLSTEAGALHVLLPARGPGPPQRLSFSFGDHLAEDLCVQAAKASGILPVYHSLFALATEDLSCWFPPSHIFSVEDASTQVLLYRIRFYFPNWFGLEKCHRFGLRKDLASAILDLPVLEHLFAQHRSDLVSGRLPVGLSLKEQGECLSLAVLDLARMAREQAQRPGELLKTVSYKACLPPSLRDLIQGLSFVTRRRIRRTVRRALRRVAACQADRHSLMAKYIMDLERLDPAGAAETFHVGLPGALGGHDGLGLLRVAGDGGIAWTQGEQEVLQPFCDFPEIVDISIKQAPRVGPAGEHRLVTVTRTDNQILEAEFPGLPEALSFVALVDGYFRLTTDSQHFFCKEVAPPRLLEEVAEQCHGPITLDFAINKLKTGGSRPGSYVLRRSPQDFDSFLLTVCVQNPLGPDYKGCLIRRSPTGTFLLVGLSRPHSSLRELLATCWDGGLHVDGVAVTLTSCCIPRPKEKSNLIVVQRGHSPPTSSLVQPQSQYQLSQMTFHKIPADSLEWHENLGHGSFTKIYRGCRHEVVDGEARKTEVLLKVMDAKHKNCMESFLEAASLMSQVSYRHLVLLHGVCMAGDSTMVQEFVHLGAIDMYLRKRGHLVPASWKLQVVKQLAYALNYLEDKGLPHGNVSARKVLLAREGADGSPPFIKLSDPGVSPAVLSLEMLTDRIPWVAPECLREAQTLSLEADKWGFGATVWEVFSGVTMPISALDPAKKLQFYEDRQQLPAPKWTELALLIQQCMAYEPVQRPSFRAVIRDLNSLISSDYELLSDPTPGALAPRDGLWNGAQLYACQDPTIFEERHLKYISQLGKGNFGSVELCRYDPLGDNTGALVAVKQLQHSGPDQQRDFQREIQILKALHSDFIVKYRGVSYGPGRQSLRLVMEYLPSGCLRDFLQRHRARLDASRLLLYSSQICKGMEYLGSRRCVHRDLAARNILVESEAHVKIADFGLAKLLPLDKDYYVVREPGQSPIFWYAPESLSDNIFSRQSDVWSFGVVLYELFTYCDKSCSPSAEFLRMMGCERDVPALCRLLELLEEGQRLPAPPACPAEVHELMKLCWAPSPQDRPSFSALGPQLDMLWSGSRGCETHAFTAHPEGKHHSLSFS

phosphorylation of STAT5 [1] = conditions: PBMC, IL-2 stimulus
phosphorylation of STAT4 = conditions: PBMC, INF-α stimulus
TYK2 = TYK2 (Homo sapiens, UniProt P29597); conditions: in vitro
JAK2 = JAK2 (Homo sapiens, UniProt O60674); conditions: in vitro
JAK1 = JAK1 (Homo sapiens, UniProt P23458); conditions: in vitro
phosphorylation of STAT5 [2] = conditions: PBMC, GM-CSF stimulus

Chain of JAK1 (P23458 whole entry, species assumed): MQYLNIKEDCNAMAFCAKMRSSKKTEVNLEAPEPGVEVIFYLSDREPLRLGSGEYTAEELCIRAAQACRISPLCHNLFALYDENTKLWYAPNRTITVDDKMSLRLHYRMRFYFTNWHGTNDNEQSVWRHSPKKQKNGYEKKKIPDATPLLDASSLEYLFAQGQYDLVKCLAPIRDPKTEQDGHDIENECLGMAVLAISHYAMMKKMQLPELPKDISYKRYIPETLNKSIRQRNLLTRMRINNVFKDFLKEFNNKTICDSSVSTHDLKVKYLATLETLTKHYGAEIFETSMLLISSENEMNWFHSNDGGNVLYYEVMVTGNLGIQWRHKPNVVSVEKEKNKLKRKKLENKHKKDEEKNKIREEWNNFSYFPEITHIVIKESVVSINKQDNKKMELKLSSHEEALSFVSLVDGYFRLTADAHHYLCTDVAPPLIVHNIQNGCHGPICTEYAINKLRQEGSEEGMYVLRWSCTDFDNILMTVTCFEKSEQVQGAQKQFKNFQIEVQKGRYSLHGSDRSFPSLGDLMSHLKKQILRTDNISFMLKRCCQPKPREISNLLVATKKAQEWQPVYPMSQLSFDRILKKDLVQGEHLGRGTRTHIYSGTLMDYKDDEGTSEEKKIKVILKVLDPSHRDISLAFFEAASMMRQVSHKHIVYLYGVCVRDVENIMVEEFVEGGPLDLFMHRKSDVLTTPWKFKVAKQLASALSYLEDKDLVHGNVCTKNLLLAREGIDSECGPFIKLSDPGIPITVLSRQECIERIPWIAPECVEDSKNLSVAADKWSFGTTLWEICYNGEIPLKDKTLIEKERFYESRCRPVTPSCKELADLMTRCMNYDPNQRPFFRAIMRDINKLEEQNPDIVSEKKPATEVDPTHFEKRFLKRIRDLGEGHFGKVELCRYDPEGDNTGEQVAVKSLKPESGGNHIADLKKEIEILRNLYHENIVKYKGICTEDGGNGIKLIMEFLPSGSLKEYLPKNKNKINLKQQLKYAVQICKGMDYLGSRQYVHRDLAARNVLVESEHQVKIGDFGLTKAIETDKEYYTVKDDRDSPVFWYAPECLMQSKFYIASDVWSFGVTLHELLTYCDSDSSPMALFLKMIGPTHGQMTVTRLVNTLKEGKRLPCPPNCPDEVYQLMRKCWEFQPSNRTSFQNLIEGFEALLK
Chain of JAK2 (O60674 whole entry, species assumed): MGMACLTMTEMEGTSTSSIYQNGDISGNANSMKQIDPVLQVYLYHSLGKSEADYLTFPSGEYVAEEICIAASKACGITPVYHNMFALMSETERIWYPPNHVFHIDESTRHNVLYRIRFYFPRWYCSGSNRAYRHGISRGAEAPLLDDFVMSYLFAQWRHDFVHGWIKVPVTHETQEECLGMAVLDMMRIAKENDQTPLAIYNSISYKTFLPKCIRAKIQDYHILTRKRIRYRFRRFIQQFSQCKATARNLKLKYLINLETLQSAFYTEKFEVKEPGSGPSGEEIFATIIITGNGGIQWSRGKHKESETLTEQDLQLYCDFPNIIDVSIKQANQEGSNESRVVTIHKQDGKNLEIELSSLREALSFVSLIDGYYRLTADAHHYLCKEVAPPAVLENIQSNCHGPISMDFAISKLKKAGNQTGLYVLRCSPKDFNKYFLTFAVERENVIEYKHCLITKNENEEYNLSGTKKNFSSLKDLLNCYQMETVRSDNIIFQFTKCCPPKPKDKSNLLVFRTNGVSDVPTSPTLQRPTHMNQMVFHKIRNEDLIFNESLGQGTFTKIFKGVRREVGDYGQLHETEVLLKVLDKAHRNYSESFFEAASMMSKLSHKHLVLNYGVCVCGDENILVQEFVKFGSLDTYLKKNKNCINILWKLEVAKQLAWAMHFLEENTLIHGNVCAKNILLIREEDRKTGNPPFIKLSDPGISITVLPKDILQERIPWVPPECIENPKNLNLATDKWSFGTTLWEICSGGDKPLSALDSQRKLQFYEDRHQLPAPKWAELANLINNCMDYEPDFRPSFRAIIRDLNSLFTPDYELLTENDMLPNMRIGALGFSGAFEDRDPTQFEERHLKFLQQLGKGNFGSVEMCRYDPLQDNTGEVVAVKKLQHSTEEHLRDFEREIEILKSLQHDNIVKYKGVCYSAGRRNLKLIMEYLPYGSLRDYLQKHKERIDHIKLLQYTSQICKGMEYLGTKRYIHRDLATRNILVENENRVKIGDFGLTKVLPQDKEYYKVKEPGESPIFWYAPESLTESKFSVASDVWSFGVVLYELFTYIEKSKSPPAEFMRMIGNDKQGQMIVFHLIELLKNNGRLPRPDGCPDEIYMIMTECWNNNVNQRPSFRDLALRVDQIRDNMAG
Chain of TYK2 (P29597 whole entry, species assumed): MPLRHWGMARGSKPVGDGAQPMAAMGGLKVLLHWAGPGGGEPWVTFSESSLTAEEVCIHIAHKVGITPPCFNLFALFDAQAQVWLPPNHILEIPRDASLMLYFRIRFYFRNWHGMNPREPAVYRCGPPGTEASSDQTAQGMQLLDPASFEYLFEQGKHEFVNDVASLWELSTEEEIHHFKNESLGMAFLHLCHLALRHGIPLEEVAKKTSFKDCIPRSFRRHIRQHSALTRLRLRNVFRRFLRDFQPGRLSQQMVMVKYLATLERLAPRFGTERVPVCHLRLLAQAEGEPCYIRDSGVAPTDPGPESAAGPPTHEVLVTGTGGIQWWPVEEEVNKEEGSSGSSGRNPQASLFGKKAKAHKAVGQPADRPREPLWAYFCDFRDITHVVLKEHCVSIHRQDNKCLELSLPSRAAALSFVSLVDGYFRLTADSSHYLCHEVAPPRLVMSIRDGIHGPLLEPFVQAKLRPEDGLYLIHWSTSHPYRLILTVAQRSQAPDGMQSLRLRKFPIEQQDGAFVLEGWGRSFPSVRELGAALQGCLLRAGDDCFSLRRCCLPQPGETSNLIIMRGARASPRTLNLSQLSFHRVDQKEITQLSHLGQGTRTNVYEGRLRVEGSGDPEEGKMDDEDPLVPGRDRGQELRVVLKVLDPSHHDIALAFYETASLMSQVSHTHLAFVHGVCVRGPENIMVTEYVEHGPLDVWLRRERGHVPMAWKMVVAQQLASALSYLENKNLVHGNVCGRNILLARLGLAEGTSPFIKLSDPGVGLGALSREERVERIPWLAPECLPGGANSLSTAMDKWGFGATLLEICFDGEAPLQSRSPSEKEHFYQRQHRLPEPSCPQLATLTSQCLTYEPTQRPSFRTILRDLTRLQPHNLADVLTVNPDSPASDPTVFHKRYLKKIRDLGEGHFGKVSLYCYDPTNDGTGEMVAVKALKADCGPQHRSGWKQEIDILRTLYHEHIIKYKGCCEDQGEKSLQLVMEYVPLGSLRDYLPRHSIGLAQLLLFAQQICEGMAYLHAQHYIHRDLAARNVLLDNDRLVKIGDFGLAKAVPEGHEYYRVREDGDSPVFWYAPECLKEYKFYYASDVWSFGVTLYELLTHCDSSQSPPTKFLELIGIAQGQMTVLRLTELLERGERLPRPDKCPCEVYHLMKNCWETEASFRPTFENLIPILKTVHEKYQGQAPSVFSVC

## CC(C)(O)CNC(=O)Cc1nc2cnc3[nH]ccc3c2n1[C@H]1CC[C@H](CC#N)CC1 [drug substance, 2-(1-((1r,4r)-4-(cyanomethyl)cyclohexyl)-1,6-dihydroimidazo[4,5-d]pyrrolo[2,3-b]pyridin-2-yl)-N-(2-hydroxy-2-methylpropyl)acetamide]
JAK3
  Enzymatic activity at JAK3: potent enzymatic activity
In vivo
  Systemic exposure: low systemic exposure
intra-colonic dosing
  Concentrations in the colon versus plasma: much higher than those in the plasma
Oral dosing
  Concentrations in the colon versus plasma: much higher than those in the plasma
Phosphorylation of STAT5 [1]
  Inhibition of phosphorylation of STAT5: showed cellular activity
Phosphorylation of STAT4
  Inhibition of phosphorylation of STAT4: showed cellular activity
TYK2
  Enzymatic activity at TYK2: potent enzymatic activity
JAK2
  Enzymatic activity at JAK2: potent enzymatic activity
JAK1
  Enzymatic activity at JAK1: potent enzymatic activity
Phosphorylation of STAT5 [2]
  Inhibition of phosphorylation of STAT5: showed cellular activity
